Where two headings read alike, the source gives them in different places. Each block holds one compound with its values, some of them ahead of it.
Molecular target: T1, RARβ2 (Homo sapiens, UniProt P10826)
T1 construct: expressed in transfected cells
T1 sequence (P10826 1-448 isoform P10826-2): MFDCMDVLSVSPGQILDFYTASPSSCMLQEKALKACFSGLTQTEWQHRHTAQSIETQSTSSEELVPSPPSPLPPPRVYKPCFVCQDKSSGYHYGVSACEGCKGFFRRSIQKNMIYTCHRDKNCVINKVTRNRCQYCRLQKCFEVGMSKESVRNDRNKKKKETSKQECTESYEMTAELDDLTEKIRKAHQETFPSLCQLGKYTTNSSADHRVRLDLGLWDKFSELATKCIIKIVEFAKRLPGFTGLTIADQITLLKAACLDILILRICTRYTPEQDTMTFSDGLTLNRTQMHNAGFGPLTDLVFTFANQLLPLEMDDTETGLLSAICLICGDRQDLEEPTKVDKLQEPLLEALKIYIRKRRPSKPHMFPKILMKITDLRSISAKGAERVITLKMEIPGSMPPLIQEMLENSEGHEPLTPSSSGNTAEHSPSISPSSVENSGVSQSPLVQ
Assay: Receptor Selection and Amplification Technology (R-SAT) functional receptor assay
Assay type: cell-based
Description: The functional receptor assay, Receptor Selection and Amplification Technology (R-SAT), was used to investigate the pharmacological properties of known and novel RARβ agonists and antagonists.
Efficacy is relative to the maximal response of the reference ligand, Am-580.

[1] = Table 1, efficacy relative to the maximal response of the reference ligand Am-580
[2] = Table 1, efficacy relative to the maximal response of the reference ligand Am-580, read-out: % Eff.
[3] = Table 1, read-out: pEC50 (converted)
[4] = Table 2, efficacy relative to the maximal response of the reference ligand Am-580, read-out: % Eff.
[5] = Table 2, read-out: pEC50 (converted)
[6] = Table 2, efficacy relative to the maximal response of the reference ligand Am-580

Compound: 2-Fluoro-4-octyl[1,1′-biphenyl]-4-carboxylic acid [Compound 38]
pEC50 (Table 1): 6.81
% Eff. [1]: 70%

Compound: 4-Heptyl-3-methyl[1,1′-biphenyl]-4-carboxylic acid [Compound 52]
pEC50 (Table 1): 6.41
% Eff. [1]: 45%

Compound: CCCCCCCCc1ccc(-c2ccc(C(=O)O)cc2C)cc1 [Compound 1, 2-Methyl-4′-octyl[1,1′-hiphenyl]-4-carboxylic acid]
Emax [2]: 39%
EC50 [3]: 2.29 nM

Compound: CCCCCCCCCc1ccc(-c2ccc(C(=O)O)cc2)cc1 [Compound 2, 4′-Nonyl-biphenyl-4-carboxylic acid]
Emax [2]: 126%
EC50 [3]: 7.94 nM

Compound: CCCCCc1ccc(-c2ccc(C(=O)O)cc2)cc1 [Compound 4]
pEC50 (Table 1): 7.82
Emax [2]: 44%

Compound: CCCCCCCCc1ccc(-c2ccc(C(=O)OCCc3ccccn3)c(F)c2)cc1 [Compound 5, 3-Fluoro-4′-octyl-biphenyl-4-carboxylic acid 2-pyridin-2-yl-ethyl ester]
Emax [4]: 124%
EC50 [5]: 16.2 nM

Compound: CCCCCCCc1ccc(-c2ccc(C(=O)OCCc3ccccn3)c(F)c2)cc1 [Compound 7, 3-Fluoro-4′-heptyl-biphenyl-4-carboxylic acid 2-pyridin-2-yl-ethyl ester]
Emax [4]: 95%
EC50 [5]: 19.5 nM

Compound: CCCCCCCc1ccc(-c2ccc(C(=O)O)cc2)cc1 [Compound 9]
pEC50 (Table 1): 7.59
Emax [2]: 76%

Compound: CCCCCCCc1ccc(-c2ccc(C(=O)O)cc2)cc1 [Compound 10, 4′-Heptyl[1,1′-biphenyl]-4-carboxylic acid]
% Eff. [1]: 64%
EC50 [3]: 26.3 nM

Compound: CCCCCCOc1cc(C)c(-c2ccc(C(=O)O)cc2)cc1C [Compound 11, 4′-(Hexyloxy)-2′,5′-dimethyl[1,1′-biphenyl]-4-carboxylic acid]
Emax [2]: 78%
EC50 [3]: 27.5 nM

Compound: CCCCCCOc1ccc(-c2ccc(C(=O)O)cc2)cc1 [Compound 12]
pEC50 (Table 1): 7.54
Emax [2]: 72%

Compound: CCCCCCNC(=O)COc1nc(-c2ccc(C(=O)O)cc2)sc1C [Compound 13, 4-(4-Hexylcarbamoylmethoxy-5-methyl-thiazol-2-yl)-benzoic acid]
Emax [2]: 85%
EC50 [3]: 41.7 nM

Compound: CCCCCCCCc1ccc(-c2ccc(C(=O)OCCc3ccccn3)cc2)cc1 [Compound 14]
pEC50 (Table 2): 7.38
% Eff. [6]: 93%

Compound: CCCCCCCCc1ccc(-c2ccc(C(=O)n3cnc(NC(C)=O)n3)cc2)cc1 [Compound 15]
pEC50 (Table 1): 7.37
Emax [2]: 76%

Compound: CCCCCCc1ccc(-c2ccc(C(=O)O)cc2)cc1 [Compound 16]
pEC50 (Table 1): 7.34
Emax [2]: 37%

Compound: CCCCCCCc1ccc(-c2ccc(C(=O)OCc3ccco3)cc2)cc1 [Compound 17, 4′-Heptyl-biphenyl-4-carboxylic acid furan-2-ylmethyl Ester]
% Eff. [6]: 33%
EC50 [5]: 45.7 nM

Compound: CCCCOCCOc1ccc(-c2ccc(C(=O)O)cc2)cc1 [Compound 18, 4′-(2-Butoxyethoxy)-[1,1-biphenyl]-4-carboxylic acid]
Emax [2]: 108%
EC50 [3]: 47.9 nM

Compound: CCCCCCCc1ccc(-c2ccc(C(=O)OCCC#N)cc2)cc1 [Compound 19, 4′-Heptyl-biphenyl-4-carboxylic acid 2-cyano-ethyl ester]
Emax [4]: 36%
EC50 [5]: 52.5 nM

Compound: CCCCCCCCCCOc1ccc(-c2ccc(C(=O)O)cc2)cc1 [Compound 20]
pEC50 (Table 1): 7.26
Emax [2]: 98%

Compound: CCCCCCCc1ccc(-c2ccc(C(=O)OCc3ccco3)cc2)cc1 [Compound 21]
pEC50 (Table 2): 7.26
% Eff. [6]: 106%

Compound: CCCCOCCOc1nc(-c2ccc(C(=O)O)cc2)sc1C [Compound 27, 4-[4-(2-Butoxy-ethoxy)-5-methyl-thiazol-2-yl]-benzoic acid]
Emax [2]: 95%
EC50 [3]: 75.9 nM

Compound: CCCCCCCCc1ccc(-c2ccc(C(=O)O)cc2)cc1 [Compound 35]
pEC50 (Table 1): 6.94
% Eff. [1]: 83%

Compound: CCCCOCCOc1cc(C)c(-c2ccc(C(=O)O)cc2)cc1C [Compound 44, 4′-(2-Butoxyethoxy)-2′,5′-dimethyl[1,1-biphenyl]-4-carboxylic acid]
Emax [2]: 41%
EC50 [3]: 245 nM

Compound: CCCCCCCCN1CCN(c2ccc(C(=O)O)cc2)CC1 [Compound 50, 4-(4-Octyl-piperazin-1-yl)-benzoic acid]
Emax [2]: 85%
EC50 (pEC50, Table 1): 295 nM

The next lines start with the values.

Emax [2]: 36%
EC50 [3]: 57.5 nM
Compound: CCCCCCCc1ccc(-c2ccc(C(=O)O)cc2F)cc1 [Compound 22, 2-Fluoro-4′-heptyl[1,1′-biphenyl]-4-carboxylic acid]

Emax [4]: 46%
EC50 [5]: 60.3 nM
Compound: CCCCCCCOc1ccc(-c2ccc(C(=O)OCCC#N)cc2)cc1 [Compound 23, 4′-Heptyloxy-biphenyl-4-carboxylic acid 2-cyano-ethyl ester]

pEC50 (Table 1): 7.21
Emax [2]: 58%
Compound: CCCCCCCOc1ccc(-c2ccc(C(=O)O)cc2)cc1 [Compound 24]

pEC50 (Table 1): 7.20
Emax [2]: 65%
Compound: CC(C)CCCCOc1ccc(-c2ccc(C(=O)O)cc2)cc1 [Compound 25, 4′-(5-Methyl-hexyloxy)-biphenyl-4-carboxylic acid]

% Eff. [1]: 36%
Compound: O=C(O)c1ccc(-c2ccc(OCCC=C(C3CC3)C3CC3)cc2)cc1 [Compound 26, 4′[(4,4-Dicyclopropyl-3-butenyl)oxy][1,1-biphenyl]-4-carboxylic acid]

pEC50 (Table 2): 7.09
% Eff. [6]: 70%
Compound: CCCCCCCCc1ccc(-c2ccc(C(=O)OCCc3ccccn3)cc2)cc1 [Compound 28]

pEC50 (Table 1): 7.08
Emax [2]: 78%
Compound: CCCCCCCCc1ccc(-c2ccc(C(=O)Nc3ccc(C)cn3)cc2)cc1 [Compound 29]

Emax [4]: 62%
EC50 [5]: 91.2 nM
Compound: CCCCCCCOc1ccc(-c2ccc(C(=O)OCCc3ccccn3)cc2)cc1 [Compound 30, 4′-Heptyloxy-biphenyl-4-carboxylic acid 2-pyridin-2-yl-ethyl ester]

Emax [2]: 80%
EC50 [3]: 95.5 nM
Compound: CCCCCCCCc1ccc(-c2ccc(C(=O)C(=O)O)cc2)cc1 [Compound 31, (4′-Octyl-biphenyl-4-yl)-oxo-acetic acid]

pEC50 (Table 1): 7.02
Emax [2]: 70%
Compound: CCCCCCCCOc1ccc(-c2ccc(C(=O)O)cc2)cc1 [Compound 32]

Emax [2]: 98%
EC50 [3]: 110 nM
Compound: CCCOCCOc1nc(-c2ccc(C(=O)O)cc2)sc1C [Compound 33, 4-[5-Methyl-4-(2-propoxy-ethoxy)-thiazol-2-yl]-benzoic acid]

Emax [4]: 71%
EC50 [5]: 112 nM
Compound: CCCCCCCCc1ccc(-c2ccc(C(=O)OCCC#N)cc2)cc1 [Compound 34, 4′-Octyl-biphenyl-4-carboxylic acid 2-cyano-ethyl ester]

Emax [2]: 42%
EC50 [3]: 123 nM
Compound: CCCCCCCc1ccc(-c2ccc(C(=O)O)c(F)c2)cc1 [Compound 36, 3-Fluoro-4′-heptyl[1,1′-biphenyl]-4-carboxylic acid]

Emax [2]: 49%
EC50 [3]: 135 nM
Compound: CCCCCCCc1ccc(-c2ccc(C(=O)NO)cc2)cc1 [Compound 37, 4′-Heptyl-biphenyl-4-carboxylic acid hydroxyamide]

% Eff. [6]: 42%
EC50 [5]: 174 nM
Compound: CCCCCCCOc1ccc(-c2ccc(C(=O)OCCC#N)cc2)cc1 [Compound 39, 4′-Heptyloxy-biphenyl-4-carboxylic acid 2-cyano-ethyl ester]

pEC50 (Table 2): 6.75
% Eff. [6]: 82%
Compound: CCCCCCCCc1ccc(-c2ccc(C(=O)OCCc3ccccn3)cc2)cc1 [Compound 40]

Emax [4]: 25%
EC50 [5]: 178 nM
Compound: CCCCCCOc1ccc(-c2ccc(C(=O)OCc3ccco3)cc2)cc1 [Compound 41, 4′-Hexyloxy-biphenyl-4-carboxylic acid furan-2-ylmethyl ester]

Emax [4]: 46%
EC50 [5]: 195 nM
Compound: CCCCCCCCOc1ccc(-c2ccc(C(=O)OCCC#N)cc2)cc1 [Compound 42, 4′-Octyloxy-biphenyl-4-carboxylic acid 2-cyano-ethyl ester]

Emax [4]: 67%
EC50 [5]: 214 nM
Compound: CCCCCCCCOc1ccc(-c2ccc(C(=O)OCc3ccco3)cc2)cc1 [Compound 43, 4′-Octyloxy-biphenyl-4-carboxylic acid furan-2-ylmethyl ester]

Emax [2]: 78%
EC50 [3]: 257 nM
Compound: CCCCCCCc1ccc(-c2ccc(C(=O)NN)cc2)cc1 [Compound 45, 4′-Heptyl-biphenyl-4-carboxylic acid hydrazide]

Emax [2]: 54%
EC50 [3]: 263 nM
Compound: CCCCC(CC)COc1nc(-c2ccc(C(=O)O)cc2)sc1C (stereo not shown) [Compound 46, 4-[4-(2-Ethyl-hexyloxy)-5-methyl-thiazol-2-yl]-benzoic acid]

% Eff. [1]: 58%
Compound: O=C(O)c1ccc(-c2ccc(OCCC=C(C3CC3)C3CC3)cc2)cc1 [Compound 47, 4′-(4,4-Dicyclopropyl-but-3-enyloxy)-biphenyl-4-carboxylic acid]

Emax [4]: 49%
EC50 [5]: 275 nM
Compound: CCCCCCCCc1ccc(-c2ccc(C(=O)OCc3ccco3)cc2)cc1 [Compound 48, 4′-Octyl-biphenyl-4-carboxylic acid furan-2-ylmethyl ester]

pEC50 (Table 1): 6.55
Emax [2]: 59%
Compound: CCCC1CCCC(c2ccc(-c3ccc(C(=O)O)cc3)cc2)CC1 (stereo not shown) [Compound 49]

From patent US20090176837A1, “COMPOUNDS WITH ACTIVITY AT RETINOIC ACID RECEPTORS” (SONY CORPORATION, priority 2006, published 2009)
